The test system of one assay is RAW264.7 cells. Kind of assay: Osteoclast differentiation, TRAP assay, RAW264.7. The assay is classed as cell-based, murine. The protocol: Cell lines—Human metastatic breast cancer cells, MDA-MB-231, were cultured in Dulbecco's Modified Eagle's Medium (DMEM/F12; Invitrogen, Carlsbad, Calif.), supplemented with 2 mM L-glutamine, 1 mM sodium pyruvate, 0.02 mM non-essential amino acids, 5% fetal bovine serum, FBS (Atlanta Biologicals, Norcross, Ga.), without antibiotics or antimycotics (cDME/F12). SUM1315 and SUM159 cells (DiMeo, T. A., et al. (2009) Cancer Res 69, 5364-5373) (Asterand, Detroit, Mich.) were cultured in DMEM/F12 supplemented with […] insulin, 5% FBS (Atlanta Biologicals) and either 10 ng/ml EGF or 1 ng/ml hydrocortisone, without antibiotics or antimycotics. The SUM1315 cells are derived from a metastasis in a patient with infiltrating ductal carcinoma; SUM159 cells were derived from a primary breast tumor with metaplastic ccarcinoma. RAW264.7 (ATCC, TIB 71) cells, a murine pre-osteoclastic line capable of differentiation and mineralization in culture (in presence of RANKL and MCSF), were grown in DMEM with L-glutamine (ATCC, 30-2002) supplemented with 10% FBS. A 2× differentiation medium (DM) was formulated for the RAW 264.7 cells comprising RAW264.7 growth medium supplemented with 20% FBS, RANKL (100 ng/ml) and M-CSF (40 ng/ml) (Matsubara, T., et al. J Bone Miner Res 25, 1068-1076). Conditioned media was harvested from breast cancer cells and mixed in a 1:1 ratio with double strength differentiation medium to assess the effect on osteoclast differentiation. 1×DM was used as control or wherever SHH (R & D Systems, Minneapolis, Minn.) or OPN (R & D Systems) was used alone. The medium on the RAW264.7 cells was replenished every 48 hours. In order to assess the effect of secreted Hh ligands, the neutralizing 5E1 antibody was used (Developmental Studies Hybridoma Bank, at the University of Iowa, Iowa). The amount of 5E1 antibody used for the studies was determined following titration of the antibody with respect to its effects on osteoclast differentiation. Medium was supplemented with 5E1 (2.5 μg/ml) and was changed on alternate days until the end of the experiment. The effect of OPN on osteoclast activity was assessed by transfecting an OPN shRNA-expressing construct on day 6 post-induction of differentiation. Fresh DM was added the following day and cells were allowed to grow for another 12 hours before termination of experiment. GLI1 expression was silenced in the SUM1315 cells using shRNA targeting GLI1 into pSuperior. gfp+neo (Oligoengine, Wash., USA). […]
Osteoclast differentiation and activity assays—Tartarate-resistant acid phosphatase (TRAP) assay was conducted for RAW 264.7 following the manufacturer's protocol (Sigma, St. Louis, Mo.). […] The percentage of area resorbed was calculated using the NIS-Elements BR. […]

Assay [1] relates to OPN, MMP9, Cathepsin K (CTSK). Description: OPN, MMP9 and CTSK expression by osteoclasts. It counts as cell-based, murine. The settings on record: DM supplemented with cyclopamine. An excerpt:
Quantitative RT-PCR (qRT-PCR)-cDNA was generated using High Capacity Reverse Transcriptase Kit (Applied Biosystems, Foster City, Calif.). […] All reactions were done in triplicate.

The subject of assay [2] is OPN. Description: OPN regulation and GLI1 localisation in osteoblastic cells hFOB and MC3T3-E1. The assay is classed as cell-based. As to the method: The role of the Hedgehog pathway in regulating the expression of OPN in the two osteoblastic cell lines, hFOB and MC3T3-E1 was assessed.
Quantitative RT-PCR (qRT-PCR)-cDNA was generated using High Capacity Reverse Transcriptase Kit (Applied Biosystems, Foster City, Calif.). Real time PCR was performed using a BioRad iQ5 Real-Time Detection system (Bio-Rad, Hercules, Calif.). All reactions were done in triplicate. OPN transcript levels were normalized to GAPDH levels (dCT) which was used to calculate changes in OPN expression (2-ddCT). […] The primers used included Spp1 (OPN) (Mm 00436767_m1); Bglap (osteocalcin) (Mm 01741771_g1); IBSP (Mm 00492555_m1); PTHrP (Mm 00433057_m1); RANKL (Mm 00441906_m1); GAPDH (Mm 99999915_g1).

Assay [3] has as its system OPN. Description: OPN mRNA by qRT-PCR in metastatic melanoma cell lines. The assay is classed as cell-based, human. The settings on record: MDA-MB-435. The protocol:
This medium was replaced with fresh cyclopamine-containing medium after 12 h. […] RNA was assessed by real-time RT-PCR for OPN transcript levels.
Quantitative RT-PCR (qRT-PCR)-cDNA was generated using High Capacity Reverse Transcriptase Kit (Applied Biosystems, Foster City, Calif.). Real time PCR was performed using a Bio-Rad iQ5 Real-Time Detection system (Bio-Rad). All reactions were done as three independent replicates. All assays were done using the TaqMan Gene Expression Assays from Applied Biosystems. OPN (SPP1: Hs 00959010_m1) transcript levels were normalized to glyceraldehyde-3-phosphate dehydrogenase (Hs 99999905_m1) levels (δCT), which was used to calculate changes in OPN expression (2^−δδCT). […] GLI1 and SHH (Hs 00179843_m1) expressions were also similarly assessed with glyceraldehyde-3-phosphate dehydrogenase as an endogenous control. To analyze the knockdown effectiveness, “scrambled transfectants” of MDA-MB-435 was set as calibrator.

The next assay relates to ERCC1, XPD, XRCC1. Description: ERCC1, XPD, XRCC1 mRNA / protein levels in A2780-CP70 cells. It counts as cell-based, human. The settings on record: A2780-CP70.

“Also recorded” adds a separate entry of the source.

Experimental findings from US9464291B2, “Methods and compositions for the treatment of cancer” (University of South Alabama, priority 2012, dated 2016) are described below.

Take `CC1=C2C[C@H]3[C@@H](CC=C4C[C@@H](O)CC[C@@]43C)[C@@H]2CC[C@]12O[C@@H]1C[C@H](C)CN[C@H]1[C@H]2C` [cyclopamine]: the “osteoclast differentiation into TRAP-positive, multinucleate osteoclasts” value with RAW264.7 cells (DM + cyclopamine 20 μM) is “significantly (p<0.0001) reduced the ability of DM to elicit differentiation”. For the same molecule, the “ability of MDA-MB-435 conditioned medium to induce osteoclast differentiation” value in the assay with RAW264.7 cells (tumor cells treated with cyclopamine) is given as “significant reduction in this ability”. The “expression of OPN, MMP9 and CTSK by the osteoclasts” value in assay [1] was “significantly reduces the expression of OPN, MMP9 and CTSK”. Moreover, the OPN transcript levels result with OPN [2] (hFOB / pre-osteoblasts, cyclopamine) is “decreases OPN mRNA levels; also recorded: inhibited the transcription of OPN; also recorded: reduction in the levels of OPN transcript levels”. Moreover, the GLI1 subcellular localisation result in the assay with OPN [2] (hFOB, cyclopamine 20 μM, 24 h) is “keeps GLI1 sequestered in the cytosolic compartment”. For the same molecule, the “OPN mRNA levels” value in the assay with OPN [3] (MCC012A, MCC012F, cyclopamine 24 h) is recorded as “decreases the levels of OPN mRNA”. For the same molecule, in the assay with ERCC1, XPD, XRCC1 (IC50 cyclopamine 24 hours, then 30 μM cisplatin 1 hour (data not shown)), the “ERCC1, XPD, XRCC1 mRNA upregulation over baseline” value is recorded as “approximately 2 fold”. Further, the “time of highest ERCC1, XPD, XRCC1 mRNA levels after cisplatin exposure” value with ERCC1, XPD, XRCC1 (cyclopamine pretreatment vs cisplatin alone) was 24 h. Moreover, the “ERCC1, XPD, XRCC1 mRNA levels after agent alone” value in the assay with ERCC1, XPD, XRCC1 (levels associated with 50% cell killing, 6-72 hr) is given as “no increase; also recorded: no detected effect”.
Turning to “SHH: recombinant Sonic hedgehog ligand (R & D Systems)”, the “numbers of TRAP stained multinucleate cells” value in the assay with RAW264.7 cells (DM supplemented with SHH (100 nM) or OPN (100 ng/ml) vs DM alone) is listed as “significant (p<0.005) increase”. The OPN promoter activity entry in the assay with OPN [2] (hFOB and MC3T3) is “stimulated the promoter of OPN; also recorded: upregulation in OPN promoter activity”. In addition, in the assay with OPN [3] (cyclopamine 20 μM, recombinant SHH 100 nM), the “rescue of OPN transcript levels from cyclopamine inhibition” value was “reverse and rescue the inhibitory effects of cyclopamine”.
